From patent US11267859B2, “GM-CSF mimetics and methods of making and using same” (The Regents of the University of Colorado, a body corporate, priority 2017, dated 2022)

Key:
[1] = test system: TF-1 cells; assay: Live cell counts of GM-CSF-starved TF-1 cells by flow cytometry (DAPI); assay type: cell-based, human; settings: TF-1 starved of GM-CSF 24 h, FIG. 2A
Description: FIGS. 2A-2C illustrate results of experiments wherein the GM-CSF-dependent human erythroleukemic cell line TF-1 was starved of GM-CSF for 24 h prior to treatment with media containing GM-CSF, with medium containing a GM-CSF mimetic (M1, M5 or M6; 10 nM or 100 nM), or with control medium lacking GM-CSF. The cells were fed fresh medium each day to replenish indicated concentrations (10 nM or 100 nM). Live cell counts from 3-4 replicates were plotted for each of the different conditions in FIG. 2A. […] The plots were gated by front and side scatter for singlets, then gated by DAPI, wherein DAPI-positive cells were dead and DAPI-negative cells were alive, and front scatter for live cells indicated in the selected region with the cell numbers represented below the plots.
Evaluation of ability of the GM-CSF mimetics to support cell growth was carried out by measuring cell number and cell viability by flow cytometry. The TF-1 cell line was first starved of GM-CSF for 24 h, and then plated in various conditions. […] At 72 h post-treatment, the cells were treated with DAPI (1 μg/ml) to label the nuclei of dead cells and were analyzed on a Yeti cell analyzer from Propel Labs. […] Each dot represents an individual measured cell, and increased color by “heat map” indicates a large group of cells with overlapping DAPI and forward scatter area.

[2] = test system: transgenic mice that express the human GM-CSF receptor (hGMR mice); assay: Blood neutrophil response in transgenic hGMR mice after subcutaneous injection for three days; assay type: in vivo, mouse; settings: s.c.; for percentage of neutrophils at 72 h versus 0 h (paired T-test): three days, P<0.0019 for GM-CSF, P<0.0052 for M6
Description: FIGS. 3A-3B comprise a plot illustrating % change in neutrophil levels in blood from transgenic hGMR mice (Nishijima, et al., 1995, Mol. Biol. Cell 6(5):497-508) treated with saline (3 days) as a negative control, with human GM-CSF (hGM-CSF, 5 μg/day×3 days) as a positive control, with the GM-CSF mimetic M1 (M1 5 μg/day×3 days), or with the GM-CSF mimetic M6 (M6, 5 μg/day×3 days) (FIG. 3A). Each connected symbol represents an individual hGMR mouse pre- and post-treatment (0 h and 72 h, respectively). Error bars represent standard error of the mean. […] To determine whether the PEG-based GM-CSF mimetics of the invention are active in vivo, the GM-CSF mimetic molecules M1 and M6 were tested in transgenic mice that express the human GM-CSF receptor and are responsive to human GM-CSF, referred to herein as hGMR mice (Nishijima, et al., 1995, Mol. Biol. Cell 6(5):497-508). The hGMR mice were tested for their responses to M1 or M6. Specifically, the study included four groups of mice: (1) hGMR mice injected subcutaneously with saline (n=4 mice) as a negative control (Saline); (2) hGMR mice injected subcutaneously with commercial human GM-CSF ([…]; n=13 mice) as a positive control, because these mice should respond to human GM-CSF; (3) hGMR mice injected subcutaneously with M1 (5 μg/animal/day; n=5 mice); and (4) hGMR mice injected subcutaneously with M6 (5 μg/animal/day; n=6 mice) for three days. Blood samples were collected before the mice received any injections of saline, human GM-CSF, M1, or M6, and blood samples were also collected after the three days of injections. The percentage of neutrophils present in the blood post-treatment was measured by counting from whole blood smears. FIG. 3A illustrates trends in the percentages of neutrophils in individual mice from each of the four groups; each connected symbol represents an individual hGMR mouse pre- and post-treatment (0 h and 72 h, respectively). FIG. 3B compares the changes in the percentage of neutrophils over the course of the treatment for each of the four groups.

[3] = test system: TF-1 cells; assay: ATPlite viability assay of GM-CSF-dependent TF-1 cells grown without GM-CSF; assay type: cell-based, human; settings: for GM-CSF receptor agonist activity (cell viability, ATPlite): TF-1 cells without GM-CSF, 1 nM, 10 nM or 50 nM; for activity as a GM-CSF mimetic/agonist: summary statement citing FIGS. 1A-1B, FIGS. 2A-2C
Description: FIGS. 1A-1B comprise bar graphs illustrating use of the ATPlite assay to examine the viability of the GM-CSF-dependent human erythroleukemic cell line TF-1 (Hansen, et al., 2008, Cell 134(3):496-507) treated with GM-CSF mimetics of the invention (M1, M5, or M6; 1 nM, 10, nM, or 50 nM). TF-1 cells grown in the absence of GM-CSF (control) served as a negative control, and TF-1 cells grown in the presence of GM-CSF (GM-CSF; 0.7 nM) served as a positive control. […] Error bars represent standard error of the mean. *** indicates P<0.0001, * indicates P≤0.03, compared to control.
In order to determine whether a synthetic fragment of GM-CSF or a construct comprising a combination of GM-CSF fragments linked together using PEG linkers is an agonist of the GM-CSF receptor, human cell lines dependent on GM-CSF for proliferation were employed: specifically, the human hematopoietic cell line TF-1 (Hansen, et al., 2008, Cell 134(3): 496-507) and the human cell line MOTE (Monfardini, et al., 2002, Curr Pharm Des 8(24):2185-2199) (both obtained from American Type Culture Collection, or ATCC).
In experiments with the TF-1 cell line, it was determined whether the GM-CSF mimetics of the invention were sufficient to support cell growth and viability in the absence of GM-CSF. Specifically, the cells were grown in medium without GM-CSF (control) as a negative control, in medium supplemented with GM-CSF (GM-CSF; 0.7 nM) as a positive control, or in medium supplemented with one of the GM-CSF mimetics of the invention (i.e., M1, M5, or M6; 1 nM, 10 nM, or 50 nM; FIGS. 1A-1B). Cell viability was measured using the ATPlite assay (PerkinElmer) to determine whether the GM-CSF mimetics of the invention were capable of maintaining the viability of TF-1 cells, which require GM-CSF, thus providing a measure of agonist activity.

Substance	number of live cells versus control ([1]; 100 nM replenished daily, P<0.042)	% change in neutrophils versus saline control group ([2]; 5 μg/animal/day for three days, student's T-test, P<0.046, FIG. 3B)	percentage of neutrophils at 72 h versus 0 h (paired T-test) [2]	GM-CSF receptor agonist activity (cell viability, ATPlite) ([3]; 24 h post-treatment (FIG. 1A))	GM-CSF receptor agonist activity (cell viability, ATPlite) ([3]; 48 h post-treatment (FIG. 1B))	live cell counts versus negative control ([1]; 10 nM or 100 nM replenished daily, 72 h post-treatment)	activity as a GM-CSF mimetic/agonist [3]
QPWEHVNAIQEAR {PEG6} DFLLVIP {PEG6} DFLLVIP {PEG6} QPWEHVNAIQEAR [Mimetic M6]	significantly lower than control	statistically significantly higher than that for the saline control group	statistically significantly higher at 72 h than at 0 h	GM-CSF receptor agonist activity	the agonist effect is also replicated	–	–
QPWEHVNAIQEAR {PEG6} DFLLVIP {PEG6} QPWEHVNAIQEAR {PEG6} DFLLVIP [Mimetic M5]	–	–	–	GM-CSF receptor agonist activity	the agonist effect is also replicated	–	–
QPWEHVNAIQEAR (SEQ ID NO: 7) [Mimetic M1]	–	–	–	GM-CSF receptor agonist activity	the agonist effect is also replicated	significant increase in the cell counts over the negative control	active as a GM-CSF mimetic/agonist
DFLLVIP (SEQ ID NO: 8) [Mimetic M2, human GM-CSF peptide fragment, aa 112-118 of mature GM-CSF]	–	–	–	–	–	–	active as a GM-CSF mimetic/agonist
GM-CSF: granulocyte-macrophage colony-stimulating factor; commercial human GM-CSF used as positive control	–	–	statistically significantly higher at 72 h than at 0 h	–	–	–	–
